The values that follow are results of earlier work, collected in US20190167612A1, “PHARMACEUTICAL FORMULATION FOR ORAL ADMINISTRATION WITH CONTROLLED DISSOLUTION RATE COMPRISING SUSTAINED-RELEASE PELLETS CONTAINING TAMSULOSIN HYDROCHLORIDE” (HANMl PHARM. CO., LTD., priority 2016, published 2019).

Counter-ions that a name gives are not always drawn. Some results are limits rather than exact numbers.

The conditions of data set [1]: in vivo.

On to `CCOc1ccccc1OCCN[C@H](C)Cc1ccc(OC)c(S(N)(=O)=O)c1` [Tamsulosin hydrochloride, (R)-5-[2-[[2-(2-ethoxyphenoxy)ethyl]-amino]propyl]-2-methoxy-benzenesulfonamide], for which the Solubility in water entry is “slight solubility in water”. In data set [1], the Bioavailability is no less than 90%.
